The text below walks through data of publication PMC10281575, “PfCRT mutations conferring piperaquine resistance in falciparum malaria shape the kinetics of quinoline drug binding and transport” (PLOS Pathogens, 2023).

The target of the assay is T1, PfCRT^Dd2_M343L (Plasmodium falciparum, UniProt Q8IBZ9, A220S/I356T/K76T/M343L/M74I/N326S/N75E/Q271E/R371I).
T1 construct: expressed in transfected cells; host or cells: Xenopus laevis oocytes injected with in vitro transcribed RNA (pSP64T)
T1 sequence (Q8IBZ9 1-424 M74I/N75E/K76T/A220S/Q271E/N326S/M343L/I356T/R371I): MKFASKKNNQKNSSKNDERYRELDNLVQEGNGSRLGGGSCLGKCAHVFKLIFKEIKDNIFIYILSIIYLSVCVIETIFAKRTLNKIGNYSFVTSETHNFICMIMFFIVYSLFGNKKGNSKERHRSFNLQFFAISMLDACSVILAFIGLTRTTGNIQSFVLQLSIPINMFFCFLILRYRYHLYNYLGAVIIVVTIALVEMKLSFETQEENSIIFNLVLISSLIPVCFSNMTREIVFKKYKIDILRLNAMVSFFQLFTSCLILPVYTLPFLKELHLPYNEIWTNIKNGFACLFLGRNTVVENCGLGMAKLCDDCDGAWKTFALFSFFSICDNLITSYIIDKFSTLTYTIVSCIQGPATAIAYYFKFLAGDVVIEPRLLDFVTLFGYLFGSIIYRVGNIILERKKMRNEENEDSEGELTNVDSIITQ
Kind of assay: Verapamil inhibition of PfCRT-mediated CQ and PPQ transport in oocytes, PfCRT^Dd2_M343L. It counts as cell-based. Particulars: individual replicates (S3 Fig). As for the experimental part:
In all cases, the PfCRT-mediated CQ and PPQ transport was inhibited in the presence of 100 μM verapamil (S3 Fig).
Drug transport assays were performed as previously described. Briefly, measurements of radiolabeled drug uptake were made over 1 h, unless otherwise specified. […] Where specified, one or more unlabeled drugs were also present at the indicated concentrations. The direction of drug transport in the assays is from the extracellular medium (pH 6) into the oocyte cytosol (pH 7.2), which corresponds to the efflux of CQ or PPQ from the acidic digestive vacuole (pH 5.2) into the parasite cytosol (pH 7.2). The uptake assays were terminated by removing the oocytes from the reaction medium and washing them three times with 2 mL of ice-cold ND96 buffer. Each oocyte was transferred to a separate scintillation vial and lysed by the addition of 200 μL of a 5% SDS solution. The radioactivity in the sample was measured using a liquid scintillation analyser Tri-Carb 4910 TR (PerkinElmer). Water-injected oocytes were analyzed in parallel as a negative control. The buffer from each condition was measured in duplicate in parallel to each experiment to transform counts per minute into pmol of drug. Drug uptake attributable to PfCRT was determined by subtracting the background uptake from water-injected oocytes from that of PfCRT-expressing oocytes. In all cases, at least three independent experiments were performed on oocytes from different frogs, and for each condition in an experiment, measurements were made from 10 oocytes per treatment.
Supplementary file ppat.1011436.s006.tif: S3 Fig Verapamil inhibits PfCRT-mediated transport of CQ and PPQ. […] Left panels, data is shown as individual biological replicates (coloured symbols) overlaid onto bars representing the Mean ± S.E.M. (error bars). A one-tailed Student’s t-test was performed between untreated (no VP) and treated (+ 100 μM VP) samples, and the obtained p values are shown. Right panels, the uptake in VP-treated samples was divided by the uptake in their corresponding untreated pairs and subtracted from 100% to get the percentage of uptake inhibition mediated by the presence of 100 μM verapamil in the extracellular medium. Error bars are S.E. (TIF) Click here for additional data file.

“And” between values parts separate entries of the source, which are not always exact repeats. Equal entries are not always repeated.

For `CCN(CC)CCCC(C)Nc1ccnc2cc(Cl)ccc12` (stereo not drawn) [CQ, chloroquine], the “PfCRTDd2_M343L-mediated CQ transport” value (50 µM CQ + 100 µM VP) was 1.630 pmol oocyte-1 h-1 and 0.990 pmol oocyte-1 h-1 and 2.400 pmol oocyte-1 h-1; the “PfCRTDd2_M343L-mediated CQ transport” value (50 µM CQ) is 2.130 pmol oocyte-1 h-1 and 3.200 pmol oocyte-1 h-1 and 2.380 pmol oocyte-1 h-1 and 2.370 pmol oocyte-1 h-1.
Turning to `Clc1ccc2c(N3CCN(CCCN4CCN(c5ccnc6cc(Cl)ccc56)CC4)CC3)ccnc2c1` [PPQ, piperaquine], where the note is “50 µM PPQ + 100 µM VP”, the “PfCRTDd2_M343L-mediated PPQ transport” value is 22.37 pmol oocyte-1 h-1 and 37.53 pmol oocyte-1 h-1 and 41.81 pmol oocyte-1 h-1 and 17.67 pmol oocyte-1 h-1.
